Measurements reported in patent US20190008870A1, “COMPOSITIONS AND METHODS FOR LIPID METABOLISM DISORDER” (JANSFAT BIOTECHNOLOGY CO., LTD., priority 2016, published 2019).

Experiments:
liver fat globules = assay: Amounts and diameter of liver fat globules in IHC-stained liver sections (steatohepatitis); assay type: in vivo; parameters: Amounts of liver fat globules, p-HSL staining / Amounts of liver fat globules, TNF-α staining / Amounts of liver fat globules, MMP-9 staining / Amounts of liver fat globules, HSL staining / Amounts of fat globules in steatohepatitis, ATGL staining / Amounts of fat globules in steatohepatitis, CD11c-M1 staining / Amounts of fat globules in steatohepatitis, CD209a-M2 staining: unit not given here; conditions: HFD mice
Procedure: The diameter of the white bar in the photograph was standardized at […] for measuring the specific diameter of oil globulets in a whole liver slice, observed by microscope, with the aid of Powerpoint PC computer software (Microsoft®, U.S.A.) and printed out by a Hewlett-Packard® printer (U.S.A.). An increase in oil globulet diameter and cell number indicated increasing liver steatosis, i.e. steaotohepatitis. In contrast, decrease in diameter and the number of fat cells indicated the inhibition of steaotohepatitis. […] Hematoxylin-eosin (H&E) and IHC staining of liver were used to assess oil globulet numbers under a microscope.
(§1) For IHC of MMP-9/TNFα, HSL/p-HSL/ATGL and eNOS/IL-10, antigen retrieval of de-paraffinated sections was performed in Dako target retrieval solution, pH 9.0, in a vegetable steamer followed by the quenching of endogenous peroxidase activity with 3.0% H2O2 in methanol. Sections were then incubated with specific primary antibodies overnight at 4° C. in a humidified chamber. The antibodies used included rabbit polyclonal anti-eNOS (1:50 dilution) (Abcam, Cambridge, UK) or rabbit monoclonal anti-cleaved caspase-3 (1:50 dilution) (Cell Signaling, U.S.A.). The sections were then examined using a DAKO REAL EnVision™ Detection System kit (DAKO, Carpinteria, Calif., U.S.A.) and counterstained with hematoxylin. Images were obtained through a Nikon Eclipse TE200-S microscope.

TNF-α = assay: IHC staining of TNF-α in epididymal fat pads; assay type: in vivo, mice; conditions: HFD 14 weeks, KMUP-1 2.5 mg/kg/day, Control 36
Procedure: as §1

epididymal fat pads = assay: Epididymal fat pad weight and diameter in HFD mice; assay type: in vivo
Procedure: (§2) Mice liver and epididymal fat pads were cut and soaked in formalin, dehydrated through graded alcohols and embedded in paraffin. Specimens of liver tissues and epididymal fat pads fixed with formalin (4%) were embedded in paraffin for one hour at 4° C., cut into 4-μm-thick sections, and subjected to H&E staining before examination by light microscope.

ROCK II = assay: Expression of ROCK II (Table 12); conditions: Control group 100 (%)
HSL = HSL immunoreactivity in HepG2 cells; assay type: cell-based; conditions: 24 hours
Procedure: To determine that KMUP-1 or targeted drugs can affect PKA, we incubated KMUP-1 (10^−4, 10^−5, 10^−6 M) or targeted drugs with HepG2 cells for 24 hours to measure the protein expressions of PKA/PKG by Western blotting or PKA/PKG and HSL immunoreactivities by fluorescence staining, combined with image scanning in the absence or presence of oxidized LDL (200 μg/mL).

ApoA-I = ApoA-I expression in HepG2 cells; assay type: cell-based; conditions: 10^−9-10^−5 M
Procedure: (§3) The HepG2 hepatoma cell line was purchased from the American Type Culture Collection (ATCC, Manassas, Va., U.S.A.). Cells were cultured in Dulbecco's Modified Eagle's Medium (DMEM). The culture media was supplemented with 5% heat-inactivated FBS, penicillin (100 U/mL) and streptomycin (100 μg/mL). Cells were grown in a humidified atmosphere containing 5% CO2 at 37° C., in which the oxygen tension in the incubator was held at 140 mmHg (20% O2, v/v; normoxic conditions). […] Then the targeted drugs solution was incubated with the cells for 24 hours, followed by protein extraction. The targeted drugs were added to the […].
(§4) HepG2 cells were treated with various concentrations of targeted drugs for 24 hours. Reactions were terminated by washing twice with cold PBS, and the cells were then harvested. Proteins in the whole-cell lysate were homogenized in an ice-cold lysis buffer and a protease inhibitor (Sigma-Aldrich, St. Louis, Mo., U.S.A.). The homogenate was centrifuged at 90,000×g for 15 minutes at 4° C., and supernatant was recovered as the total cellular protein. […]

PKA/PKG = assay: Hepatic PKA/PKG expression in HFD mice; assay type: in vivo; conditions: Control printed 550%
LDLRs = assay: Fluorescence staining of LDLRs in HepG2 cells; assay type: cell-based
Procedure: HepG2 cells were used to determine the cellular protein expression of LDLRs in the presence of exogenous LDL (500 μg/mL). […] All images were collected and analyzed by scanning with Nikon Eclipse TE200-S microscope (Tokyo, Japan).

LXRα = LXRα expression in HepG2 cells; assay type: cell-based; conditions: 10^−9-10^−5 M
Procedure: as §3, §4

eNOS = assay: Expression of eNOS (Table 12); conditions: Control group 100 (%)
fatty liver = assay: Gross morphology and H&E staining of liver of HFD mice; assay type: in vivo
Procedure: as §2

Cn1c(=O)c2c(ncn2CCN2CCN(c3ccccc3Cl)CC2)n(C)c1=O [KMUP-1, 7-[2-[4-(2-chlorophenyl)piperazinyl]ethyl]-1,3-dimethylxanthine]
Amounts of fat globules in steatohepatitis, ATGL staining (liver fat globules; Protection group): 28 | Amounts of fat globules in steatohepatitis, CD11c-M1 staining (liver fat globules; Protection group): 26 | Amounts of fat globules in steatohepatitis, CD209a-M2 staining (liver fat globules; Protection group): 41 | Amounts of liver fat globules, HSL staining (liver fat globules; Protection group): 115 | Amounts of liver fat globules, MMP-9 staining (liver fat globules; Protection group): 18 | Amounts of liver fat globules, TNF-α staining (liver fat globules; Protection group): 18 | Amounts of liver fat globules, p-HSL staining (liver fat globules; Protection group): 28 | Diameter of fat globules in steatohepatitis, ATGL staining (liver fat globules; Protection group): 5.5 μm | Diameter of fat globules in steatohepatitis, CD11c-M1 staining (liver fat globules; Protection group): 8 μm | Diameter of fat globules in steatohepatitis, CD209a-M2 staining (liver fat globules; Protection group): 9.5 μm | Diameter of liver fat globules, HSL staining (liver fat globules; Protection group): 9.7 μm | Diameter of liver fat globules, MMP-9 staining (liver fat globules; Protection group): 8 μm | Diameter of liver fat globules, TNF-α staining (liver fat globules; Protection group): 8 μm | Diameter of liver fat globules, p-HSL staining (liver fat globules; Protection group): 3.9 μm | Amounts of fat globules in steatohepatitis, ATGL staining (liver fat globules; Treatment group): 46 | Amounts of fat globules in steatohepatitis, CD11c-M1 staining (liver fat globules; Treatment group): 41 | Amounts of fat globules in steatohepatitis, CD209a-M2 staining (liver fat globules; Treatment group): 50 | Amounts of liver fat globules, HSL staining (liver fat globules; Treatment group): 116 | Amounts of liver fat globules, MMP-9 staining (liver fat globules; Treatment group): 19 | Amounts of liver fat globules, TNF-α staining (liver fat globules; Treatment group): 19 | Amounts of liver fat globules, p-HSL staining (liver fat globules; Treatment group): 68 | Diameter of fat globules in steatohepatitis, ATGL staining (liver fat globules; Treatment group): 9.8 μm | Diameter of fat globules in steatohepatitis, CD11c-M1 staining (liver fat globules; Treatment group): 15.5 μm | Diameter of fat globules in steatohepatitis, CD209a-M2 staining (liver fat globules; Treatment group): 11.8 μm | Diameter of liver fat globules, HSL staining (liver fat globules; Treatment group): 9.8 μm | Diameter of liver fat globules, MMP-9 staining (liver fat globules; Treatment group): 9 μm | Diameter of liver fat globules, TNF-α staining (liver fat globules; Treatment group): 9 μm | Diameter of liver fat globules, p-HSL staining (liver fat globules; Treatment group): 9.8 μm | Immunorespons percentages, TNF-α (TNF-α): 22% | Fat pads diameter (epididymal fat pads; HFD mice 14 weeks, KMUP-1 2.5 mg/kg/day, Control 46): 28 μm | Weight of fat pads (R) (epididymal fat pads; HFD mice, KMUP-1 2.5 mg/kg/day for 14 weeks, Control 165): 120 mg | Weight of fat pads (L) (epididymal fat pads; HFD mice, KMUP-1 2.5 mg/kg/day for 14 weeks, Control 170): 96 mg | ROCK II expression (ROCK II): 42.5 ± 6.3% | HSL immunoreactivity (green fluorescence) (HSL): increased | ApoA-I expression (ApoA-I): concentration-dependently increased | PKA/PKG expression (PKA/PKG; drinking KMUP-1, Protection group): 250% | PKA/PKG expression (PKA/PKG; drinking KMUP-1, Treatment group): 100% | LDLR (green fluorescence) expression (LDLRs; 24 hours, KMUP-1 10^−6, 10^−5, 10^−4 M, simvastatin 10^−5 M): increased | LDLR fluorescence at high concentration (LDLRs; concentrations >10^−4 M, near the viability range): decline in fluoresence | LXRα expression (LXRα): concentration-dependently increased | eNOS expression (eNOS): 155.16 ± 14.8% | Fatty liver (gross morphology) (fatty liver; drinking 2.5 mg/200 ml water, protective group): markedly decreased | fat globules and Mallory's hyaline bodies (H&E staining of liver) (fatty liver; oral 2.5 mg/kg, last 6 weeks/14 weeks): reduced
